Source: patent publication US10517889B2, “Modulators of SMAD7 expression” (Ionis Pharmaceuticals, Inc., priority 2017, dated 2019)
Strand notation (5' to 3'): a small letter for the sugar, then the base; units joined by * are phosphorothioate-linked, units joined directly phosphodiester-linked; [ ] holds rarer units or linkages, { } end groups; capitals alone tell only the bases. k = constrained ethyl (cEt); [5mC] = 5-methylcytosine; d = 2'-deoxy (DNA)

Tests used:
human SMAD7 mRNA [1] = experiment: Antisense inhibition of human SMAD7 mRNA expression in Hep3B cells by 3-10-3 cEt gapmers, 10,000 nM, electroporation (Example 2); format: cell-based; settings: approximately 24 hours
In short: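 Hep3B, 20,000 cells/well; electroporation, 10,000 nM ASO; ~24 h. Readout: SMAD7 mRNA by qRT-PCR (RTS5062), RIBOGREEN-normalised; % inhibition vs untreated.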

human SMAD7 mRNA [2] = experiment: Dose-dependent inhibition of human SMAD7 mRNA expression in Hep3B cells (Example 3, Study 1 and 2); format: cell-based; settings: electroporation; for % inhibition of SMAD7 mRNA expression: approximately 16 hours; for IC50: Study 2 (740-20000 nM)
Description: The antisense oligonucleotides were tested in a series of experiments that had similar culture conditions as described below.
(§1) Cells were plated at a density of 20,000 cells per well and transfected using electroporation with 0.31 μM, 1.25 μM, 5.00 μM, or 20.00 μM concentrations of antisense oligonucleotide, as specified in the Tables below. ION 483663 was included in the assays for comparison. After a treatment period of approximately 16 hours, RNA was isolated from the cells and SMAD7 mRNA levels were measured by quantitative real-time PCR. Primer probe set RTS5062 was used to measure human SMAD7 mRNA levels. SMAD7 mRNA levels were adjusted according to total RNA content, as measured by RIBOGREEN®. Results are presented as percent inhibition of SMAD7 mRNA expression, relative to untreated control cells.
The half maximal inhibitory concentration (IC50) of each oligonucleotide is also presented.
as §1, with “0.74” for “0.31”, “2.22” for “1.25”, “6.67” for “5.00”, “below.” for “below. ION 483663 was included in the assays for comparison.”

[3] = Hep3B cells, electroporation with 10,000 nM antisense oligonucleotide, primer probe set RTS5062, relative to untreated control cells
[4] = 740 nM, Study 2, relative to untreated control cells
[5] = Hep3B cells, electroporation with 10,000 nM antisense oligonucleotide, RTS5062, percent inhibition of SMAD7 mRNA relative to untreated control cells
[6] = Hep3B cells, electroporation with 10,000 nM antisense oligonucleotide, SMAD7 mRNA by RT-PCR (RTS5062), relative to untreated control cells
[7] = SMAD7 mRNA, Hep3B cells, 10,000 nM antisense oligonucleotide, electroporation, primer probe set RTS5062, relative to untreated control cells
[8] = Hep3B cells, 10,000 nM antisense oligonucleotide, electroporation, RT-PCR primer probe set RTS5062, relative to untreated control cells

Substance	% inhibition of SMAD7 mRNA expression (human SMAD7 mRNA [1]; [3]) [%]	% inhibition of SMAD7 mRNA expression (human SMAD7 mRNA [2]; [4]) [%]	% inhibition of SMAD7 mRNA expression (human SMAD7 mRNA [2]; 2220 nM, Study 2) [%]	% inhibition of SMAD7 mRNA expression (human SMAD7 mRNA [2]; 6670.0 nM, Study 2) [%]	% inhibition of SMAD7 mRNA expression (human SMAD7 mRNA [2]; 20000.0 nM, Study 2) [%]	IC50 (human SMAD7 mRNA [2]) [µM]	% Inhibition (human SMAD7 mRNA [1]; [5]) [%]	% Inhibition (human SMAD7 mRNA [1]; [6]) [%]	% Inhibition (human SMAD7 mRNA [1]; [7]) [%]	% Inhibition (human SMAD7 mRNA [1]; [8]) [%]	% Inhibition (human SMAD7 mRNA [1]; [3]) [%]	% inhibition of SMAD7 mRNA expression (human SMAD7 mRNA [1]; Hep3B cells, electroporation, 10,000 nM, 3-10-3 cEt gapmers targeting SEQ ID NO: 3 and 4) [%]	% inhibition of SMAD7 mRNA expression (human SMAD7 mRNA [1]; Hep3B cells, electroporation, 10,000 nM antisense oligonucleotide, RTS5062, relative to untreated control cells) [%]
799402 (antisense kG*kG*kT*d[5mC]*dA*d[5mC]*dT*dG*dT*dT*d[5mC]*dT*d[5mC]*kT*k[5mC]*kT) [compound 799402]	66	0	3	13	50	10							
799568 (k[5mC]*kA*kT*dT*dA*dG*dA*dA*dG*d[5mC]*dT*dT*dT*kG*kA*kG; antisense) [compound 799568]		49	58	84	92	6	62						
799471 (antisense k[5mC]*kA*k[5mC]*dA*dG*dA*dA*dA*dA*dG*d[5mC]*dT*d[5mC]*k[5mC]*kG*k[5mC]) [compound 799471]		0	9	14	46	5		71					
829776 (antisense kG*k[5mC]*kG*dA*dG*dT*dA*dG*dG*dA*d[5mC]*dG*dA*kG*kG*kG) [compound 829776]		26	40	66	81	5			64				
799854 (kG*k[5mC]*k[5mC]*dA*dA*dG*dT*dG*dT*d[5mC]*d[5mC]*dA*dT*k[5mC]*kA*kA; antisense) [compound 799854]		21	56	80	79	5				45			
799318 (antisense kG*kT*kG*dG*dA*dT*dT*dT*dG*dA*dA*dA*dA*kG*kG*kG) [compound 799318]		12	40	70	75	11	58						
799159 (antisense kG*kT*kG*dT*dA*dT*dG*dA*dG*dT*dT*dG*dT*kA*kG*kA) [compound 799159]		43	55	78	90	19					56		
799406 (antisense kG*kG*kG*dA*dA*d[5mC]*dA*dT*dG*dG*d[5mC]*d[5mC]*dT*kT*kT*k[5mC]) [compound 799406]	65	30	51	77	84	3							
830099 (kG*k[5mC]*k[5mC]*dT*dT*dT*dG*dG*dA*dA*dT*dT*dA*kG*kT*kA; antisense) [compound 830099]		42	56	70	92	10		79					
790636 (kA*kG*k[5mC]*dA*dT*d[5mC]*dT*dG*dG*dA*d[5mC]*dA*dG*kT*k[5mC]*kA; antisense) [compound 790636]		89	93	95	99	< 0.7						95	
830163 (antisense k[5mC]*kA*kA*d[5mC]*dT*dG*dA*dA*dG*dG*dT*dG*dA*k[5mC]*k[5mC]*k[5mC]) [compound 830163]		33	49	73	84	2		60					
799689 (antisense kT*kG*k[5mC]*dT*dA*d[5mC]*dA*dG*dT*dG*dT*d[5mC]*dA*k[5mC]*k[5mC]*kA) [compound 799689]		34	49	65	73	5	63						
799669 (antisense kT*kA*kT*dG*dA*d[5mC]*dA*dG*dA*dT*dG*d[5mC]*d[5mC]*kA*kG*k[5mC]) [compound 799669]		47	72	82	95	3	81						
798733 (antisense k[5mC]*kG*k[5mC]*dG*dG*d[5mC]*dT*dG*dG*d[5mC]*dG*dG*dG*kT*kG*kG) [compound 798733]		58	84	88	95	4		72					
829734 (antisense kT*k[5mC]*k[5mC]*dG*d[5mC]*dA*d[5mC]*dA*d[5mC]*d[5mC]*dA*dT*dG*kA*kA*kG) [compound 829734]		20	40	69	68	4			71				
799673 (antisense k[5mC]*kT*kG*dA*dT*dT*dA*dA*d[5mC]*dT*dT*dT*d[5mC]*k[5mC]*kT*kT) [compound 799673]		29	66	74	86	4							64
799605 (k[5mC]*k[5mC]*kA*dA*dT*dA*dA*dA*dG*dT*dT*d[5mC]*d[5mC]*k[5mC]*kT*kT; antisense) [compound 799605]		18	46	51	75	8	56						
798931 (antisense kG*kA*kG*dG*dA*dA*dA*dA*dT*dA*dT*dT*dA*kG*k[5mC]*kA) [compound 798931]		0	43	72	83	7				69			
830138 (antisense kG*kG*kA*dG*dT*dT*dG*d[5mC]*dA*dT*dG*d[5mC]*d[5mC]*kT*kT*kT) [compound 830138]		0	40	61	87	5		71					
772842 (kG*kT*kT*dA*dA*dT*dA*dA*dT*dA*dT*d[5mC]*dT*kT*k[5mC]*k[5mC]; antisense) [compound 772842]		3	23	65	72	6	79						
799364 (kT*k[5mC]*k[5mC]*dG*dA*dG*dT*dT*dA*dT*d[5mC]*d[5mC]*d[5mC]*k[5mC]*kA*kT; antisense) [compound 799364]	73	39	54	67	88	3							
